Consider one molecule from patent publication US20150291565A1, “INDOLE COMPOUNDS AND THEIR USE AS ANTIMICROBIALS” (Memorial Sloan-Kettering Cancer Center, priority 2012, published 2015).

“And” between values parts separate entries of the source, which are not always exact repeats. Identical values can stand only once.

In test [1] the test system is S. pneumoniae (ATCC 6303). As to the kind of experiment: Thigh infection model in neutropenic CD1 mice, S. pneumoniae. The note with it: 100 mg/kg BID SC, 24 hours; for Log reduction: vs vehicle, 100 mg/kg.
The test system of test [2] is methicillin-resistant S. aureus (ATCC 33591). As to the kind of experiment: Thigh infection model in neutropenic CD1 mice, MRSA. The following applies: 100 mg/kg BID SC, 24 hours.
Test [3] has as its system S. aureus (MRSA) (ATCC33591). As to the kind of experiment: Septicemia survival model in neutropenic CD1 mice, MRSA. The format is in vivo. The following applies: 100 mg/kg BID SC.

For the molecule `CN[C@H](CC(C)C)C(=O)N[C@H]1C(=O)N[C@@H](CC(N)=O)C(=O)N[C@H]2C(=O)N[C@H]3C(=O)N[C@H](C(=O)N[C@H](C(=O)O)c4cc(O)cc(O)c4-c4cc3ccc4O)[C@H](O)c3ccc(c(Cl)c3)Oc3cc2cc(c3O[C@@H]2O[C@H](CO)[C@@H](O)[C@H](O)[C@H]2O[C@H]2C[C@](C)(N)[C@H](O)[C@H](C)O2)Oc2ccc(cc2Cl)[C@H]1O` [Vancomycin, reference compound], in test [1], the “Mean bacterial tissue burden (log10/thigh)” value came to 3.4862 log10/thigh and the Log reduction came out at 5.6265 Log. In addition, the Log reduction in test [1] (listed as vancomycin) is recorded as 5.63 Log. For the same molecule, the “Mean bacterial tissue burden (log10/thigh)” value in test [2] is 5.0033 log10/thigh. Further, in test [2] (vs vehicle, 100 mg/kg), the Log reduction was 3.45 Log and 3.4455 Log. In test [3], the “Percent Survival Day 1” value is on record as 100%, the “Percent Survival Day 2” value came to 100%, the “Percent Survival Day 3” value is listed as 100% and the “Percent Survival Day 4” value was found to be 80%. In addition, in test [3], the “Percent Survival Day 5” value was found to be 80%, the “Percent Survival Day 6” value is 80% and the “Percent Survival Day 7” value is on record as 80%.
